According to the NIST ThermoML archive (doi:10.1021/je800110r):

Settings: 293.15 K, Liquid, Vibrating tube method

CCCCCCCCCC [decane]
Settings | mass density [kg/m3]
28146 kPa | 749.4
28177 kPa | 749.5
28205 kPa | 749.5
28236 kPa | 749.5
28261 kPa | 749.4
28289 kPa | 749.5
28321 kPa | 749.5
28349 kPa | 749.5
28373 kPa | 749.5
28405 kPa | 749.5
28425 kPa | 749.6
28454 kPa | 749.5
28482 kPa | 749.6
28507 kPa | 749.6
28527 kPa | 749.6
28552 kPa | 749.5
28597 kPa | 749.7
28622 kPa | 749.7
28643 kPa | 749.6
28663 kPa | 749.8
28687 kPa | 749.7
28712 kPa | 749.7
28749 kPa | 749.8
28770 kPa | 749.7
28807 kPa | 749.8
28836 kPa | 749.7
28865 kPa | 749.9
28886 kPa | 749.9
28919 kPa | 749.9
28945 kPa | 749.9
28974 kPa | 749.9
28999 kPa | 749.9
29029 kPa | 749.9
29050 kPa | 749.9
29084 kPa | 749.9
29114 kPa | 750
29149 kPa | 749.9
29175 kPa | 750
29213 kPa | 750
29232 kPa | 750.1
29263 kPa | 750.1
29295 kPa | 750.1
29326 kPa | 750.1
29350 kPa | 750.1
29376 kPa | 750.2
29396 kPa | 750.1
29419 kPa | 750.1
29439 kPa | 750.2
29470 kPa | 750.3
29494 kPa | 750.2
29518 kPa | 750.3
29549 kPa | 750.2
29574 kPa | 750.3
29600 kPa | 750.3
29620 kPa | 750.3
29645 kPa | 750.3
29668 kPa | 750.3
29701 kPa | 750.3
29724 kPa | 750.4
29760 kPa | 750.4
29780 kPa | 750.5
29804 kPa | 750.3
29828 kPa | 750.5
29852 kPa | 750.4
29877 kPa | 750.4
29904 kPa | 750.4
29931 kPa | 750.5
29960 kPa | 750.4
29996 kPa | 750.5
30021 kPa | 750.6
30041 kPa | 750.6
30078 kPa | 750.6
30098 kPa | 750.5
30123 kPa | 750.6
30144 kPa | 750.7
30168 kPa | 750.7
30194 kPa | 750.7
30219 kPa | 750.7
30248 kPa | 750.7
30273 kPa | 750.8
30294 kPa | 750.7
30328 kPa | 750.8
30358 kPa | 750.8
30393 kPa | 750.9
30419 kPa | 750.8
30455 kPa | 750.9
30479 kPa | 750.8
30506 kPa | 750.8
30546 kPa | 750.8
30560 kPa | 750.8
30576 kPa | 750.9
30591 kPa | 750.9
30604 kPa | 751
30620 kPa | 750.9
30641 kPa | 750.9
30659 kPa | 750.9
30682 kPa | 751
30703 kPa | 751.1
30721 kPa | 751
30739 kPa | 751
30752 kPa | 751
30771 kPa | 751
30795 kPa | 751
30813 kPa | 751.1
30826 kPa | 751.1
30845 kPa | 751.1
30866 kPa | 751
30887 kPa | 751.1
30908 kPa | 751.1
30924 kPa | 751
30942 kPa | 751.1
30955 kPa | 751.1
30977 kPa | 751.1
30995 kPa | 751.1
31014 kPa | 751.1
31028 kPa | 751.2
31044 kPa | 751.1
31057 kPa | 751.1
31074 kPa | 751.2
31090 kPa | 751.2
31106 kPa | 751.2
31130 kPa | 751.3
31147 kPa | 751.3
31168 kPa | 751.3
31188 kPa | 751.3
31207 kPa | 751.3
31224 kPa | 751.3
31243 kPa | 751.2
31260 kPa | 751.3
31279 kPa | 751.3
31295 kPa | 751.4
31314 kPa | 751.3
31339 kPa | 751.3
31356 kPa | 751.4
31375 kPa | 751.4
31391 kPa | 751.3
31412 kPa | 751.3
31425 kPa | 751.4
31441 kPa | 751.4
31455 kPa | 751.5
31472 kPa | 751.3
31489 kPa | 751.4
31503 kPa | 751.5
31520 kPa | 751.5
31542 kPa | 751.4
31564 kPa | 751.5
31581 kPa | 751.5
31601 kPa | 751.5
31615 kPa | 751.4
31636 kPa | 751.4
31651 kPa | 751.6
31670 kPa | 751.5
31687 kPa | 751.5
31710 kPa | 751.7
31724 kPa | 751.8
31738 kPa | 751.5
31755 kPa | 751.5
31774 kPa | 751.6
31797 kPa | 751.5
31811 kPa | 751.6
31831 kPa | 751.7
31847 kPa | 751.7
31864 kPa | 751.7
31885 kPa | 751.7
31907 kPa | 751.7
31928 kPa | 751.6
31944 kPa | 751.6
31965 kPa | 751.9
31989 kPa | 751.7
32005 kPa | 751.8
32027 kPa | 751.7
32043 kPa | 751.7
32061 kPa | 751.8
32081 kPa | 751.9
32100 kPa | 751.8
32124 kPa | 751.9
32148 kPa | 751.9
32167 kPa | 751.8
32191 kPa | 751.8
32207 kPa | 751.9
32230 kPa | 751.9
32246 kPa | 751.8
32266 kPa | 751.9
32282 kPa | 751.8
32299 kPa | 751.9
32324 kPa | 752
32345 kPa | 752
32362 kPa | 751.9
32379 kPa | 751.9
32400 kPa | 751.9
32420 kPa | 752
32445 kPa | 752
32462 kPa | 751.9
32478 kPa | 752
32498 kPa | 752
32520 kPa | 752.1
32537 kPa | 751.9
32555 kPa | 752.1
32572 kPa | 752.1
32592 kPa | 752.2
32612 kPa | 752
32637 kPa | 752.2
32657 kPa | 752.1
32673 kPa | 752.1
32690 kPa | 752.1
32716 kPa | 752.1
32733 kPa | 752.2
32750 kPa | 752.1
32770 kPa | 752.1
32790 kPa | 752.2
32808 kPa | 752.2
32825 kPa | 752.3
32848 kPa | 752.2
32865 kPa | 752.4
32888 kPa | 752.3
32911 kPa | 752.2
32930 kPa | 752.4
32953 kPa | 752.4
32972 kPa | 752.4
32993 kPa | 752.3
33014 kPa | 752.3
33038 kPa | 752.3
33061 kPa | 752.4
33080 kPa | 752.4
33103 kPa | 752.3
33132 kPa | 752.4
33150 kPa | 752.5
33180 kPa | 752.4
33203 kPa | 752.4
33218 kPa | 752.4
33239 kPa | 752.5
33260 kPa | 752.3
33279 kPa | 752.4
33304 kPa | 752.5
33334 kPa | 752.5
33349 kPa | 752.4
33373 kPa | 752.6
33397 kPa | 752.7
33416 kPa | 752.7
33440 kPa | 752.5
33465 kPa | 752.6
33484 kPa | 752.5
33514 kPa | 752.6
33536 kPa | 752.6
33555 kPa | 752.6
33576 kPa | 752.6
33606 kPa | 752.7
33631 kPa | 752.8
33649 kPa | 752.6
33667 kPa | 752.8
33692 kPa | 752.7
33710 kPa | 752.8
33738 kPa | 752.8
33760 kPa | 752.7
33791 kPa | 752.9
33807 kPa | 752.8
33829 kPa | 752.8
33848 kPa | 752.8
33896 kPa | 752.8
33919 kPa | 752.9
33934 kPa | 752.9
33961 kPa | 753
33976 kPa | 752.9
33992 kPa | 752.9
34010 kPa | 752.9
34029 kPa | 752.9
34050 kPa | 753
34069 kPa | 753
34090 kPa | 752.9
34112 kPa | 753
34129 kPa | 753.1
34148 kPa | 753
34176 kPa | 753
34198 kPa | 752.9
